This passage reports IC50 results from the supplement of paper PMC7695840.

For assay [1], the system named is Staphylococcus aureus MW2 (mecA+). Briefly: IC50 (growth, competition assay). The conditions noted are these: cefoxitin: subinhibitory. Put shortly:
(§1)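 Signals from DsRed (540/590) and GFP (485/520) were scaled on every plate between single-strain control medians, with No Treatment then set to 0.5. The cells were a 1:1 mix of pre-induced fluorescent S. aureus MW2 strains with and without the resistance gene, grown unshaken for 20 h at 37 °C and 90% humidity in LB in 1536-well plates under a subinhibitory drug dose set each day. Each strain's IC50 was defined as the dose halving the No Treatment signal, or the maximal signal.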

The test system of assay [2] is Staphylococcus aureus MW2 delta-mecA (mecA-). Briefly: IC50 (growth, competition assay). The following applies: cefoxitin: subinhibitory. Put shortly: as §1

Where a name gives a salt, the structure may show the parent alone. Where only a bound is given, the exact number is not on record here.

By IC50 is commonly meant the concentration that gives 50% inhibition. A lower IC50 goes with inhibition by little substance. Regarding `O=c1c(O)c(-c2ccc(O)c(O)c2)oc2cc(O)cc(O)c12` [Quercetin dihydrate (Sophoretin)], the IC50 was 58.2 µM in assay [1] (fluorescent label: DsRed), 53.4 µM in assay [1] (fluorescent label: GFP), 18.7 µM in assay [2] (fluorescent label: DsRed) and 11.1 µM in assay [2] (fluorescent label: GFP).
For `O=C1NC(c2cccc([N+](=O)[O-])c2)=CCN1c1ccccc1O` [Icilin], the half-inhibitory concentration (IC50) in assay [1] (fluorescent label: DsRed) stood at 63.3 µM; in assay [1] (fluorescent label: GFP) it was 54.4 µM; in assay [2] (fluorescent label: DsRed) it was 19.3 µM; in assay [2] (fluorescent label: GFP) it was 25.5 µM.
In the same order, the values of `Oc1ccc(Cl)cc1Cc1cc(Cl)ccc1O` [DICHLOROPHEN] are less than 9.85 µM, less than 9.85 µM, less than 9.85 µM and less than 9.85 µM.
For `CC(=O)OCC(=O)[C@H]1CC[C@H]2[C@@H]3CCC4=CC(=O)CC[C@]4(C)[C@H]3CC[C@]12C` [PERCOTEN], in that order: 144 µM, 62.6 µM, 26.6 µM and greater than 150 µM.
For `C[C@H](Oc1cc(-c2cnn(C3CCNCC3)c2)cnc1N)c1c(Cl)ccc(F)c1Cl` [(S)-crizotinib], in that order: 75 µM, 101 µM, less than 9.85 µM and less than 9.85 µM.
Regarding `NC(=O)c1cc[n+](CC2=C(C(=O)[O-])N3C(=O)[C@@H](NC(=O)Cc4cccs4)[C@H]3SC2)cc1` [CEFALONIUM], the IC50 in assay [1] (fluorescent label: DsRed) was 17.5 µM; in assay [1] (fluorescent label: GFP), 15.3 µM; in assay [2] (fluorescent label: DsRed) it was less than 9.85 µM; in assay [2] (fluorescent label: GFP), less than 9.85 µM.
Regarding `CO/N=C(\C(=O)N[C@@H]1C(=O)N2C(C(=O)O)=C(COC(C)=O)CS[C@H]12)c1csc(N)n1` [Cefotaxime sodium], the half-maximal inhibitory concentration (IC50) in assay [1] (fluorescent label: DsRed), in assay [1] (fluorescent label: GFP), in assay [2] (fluorescent label: DsRed) and in assay [2] (fluorescent label: GFP) was less than 9.85 µM in each case.
In the case of `O=C(N[C@@H](Cc1ccccc1)C(=O)CCl)OCc1ccccc1` [Z-L-Phe chloromethyl ketone], the half-inhibitory concentration (IC50) in assay [1] (fluorescent label: DsRed), in assay [1] (fluorescent label: GFP), in assay [2] (fluorescent label: DsRed) and in assay [2] (fluorescent label: GFP) was less than 9.85 µM in each case.
As for `CN(C(=O)CN(CCO)CC(=O)N(C)C(C)(C)Cc1ccccc1)C(C)(C)Cc1ccccc1` [OXETHAZAINE], the IC50 was found to be 103 µM in assay [1] (fluorescent label: DsRed), 111 µM in assay [1] (fluorescent label: GFP), 40.2 µM in assay [2] (fluorescent label: DsRed) and 30.5 µM in assay [2] (fluorescent label: GFP).
For `CSc1ccc2c(c1)C(N1CCN(C)CC1)Cc1ccccc1S2` (stereo unspecified) [METITEPINE MESYLATE], in that order: 56.9 µM, 84.8 µM, 30.8 µM and 17.8 µM.
In the same order, the values of `O=C(O)C1=C(CSc2nnnn2CS(=O)(=O)O)CS[C@@H]2[C@H](NC(=O)[C@H](O)c3ccccc3)C(=O)N12` [MONOCID] are 98.3 µM, 109 µM, less than 9.85 µM and less than 9.85 µM.
For `C=C1/C(=C\C=C2/CCC[C@]3(C)[C@@H]([C@H](C)CCCC(C)C)CC[C@@H]23)C[C@@H](O)C[C@@H]1O` [Alfacalcidol], in that order: greater than 150 µM, greater than 150 µM, greater than 150 µM and greater than 150 µM.
Regarding `CCOc1nc2cccc(C(=O)OCc3oc(=O)oc3C)c2n1Cc1ccc(-c2ccccc2-c2noc(=O)[nH]2)cc1` [Azilsartan Medoxomil (TAK-491)], the IC50 in assay [1] (fluorescent label: DsRed) amounted to 48.4 µM; in assay [1] (fluorescent label: GFP) it was 67 µM; in assay [2] (fluorescent label: DsRed) it was 11.9 µM; in assay [2] (fluorescent label: GFP) it was 10.2 µM.
For `CSc1ccc2c(c1)N(CCC1CCCCN1C)c1ccccc1S2` (stereo unspecified) [MELLARIL], the IC50 in assay [1] (fluorescent label: DsRed) amounted to 66.9 µM; in assay [1] (fluorescent label: GFP), 87.4 µM; in assay [2] (fluorescent label: DsRed) it was 18.9 µM; in assay [2] (fluorescent label: GFP), 13.9 µM.
Regarding `Cn1nnnc1SCC1=C(C(=O)O)N2C(=O)[C@@H](NC(=O)[C@H](OC=O)c3ccccc3)[C@H]2SC1` [MANDOL], the IC50 in assay [1] (fluorescent label: DsRed) was 21.3 µM; in assay [1] (fluorescent label: GFP), 22.2 µM; in assay [2] (fluorescent label: DsRed) it was less than 9.85 µM; in assay [2] (fluorescent label: GFP), less than 9.85 µM.
In the case of `CCOC(=O)c1ccc(N2NC(=O)C(=Cc3ccc([N+](=O)[O-])o3)C2=O)cc1` [PYR-41], the IC50 in assay [1] (fluorescent label: DsRed) is 58.8 µM; in assay [1] (fluorescent label: GFP), 79.3 µM; in assay [2] (fluorescent label: DsRed), 24.1 µM; in assay [2] (fluorescent label: GFP), 19 µM.
In the same order, the values of `O[C@@H](COc1cccc2ncccc12)CN1CCN([C@@H]2c3ccccc3[C@@H]3[C@H](c4ccccc42)C3(F)F)CC1` are 52.2 µM, 42.5 µM, 14.3 µM and less than 9.85 µM.
For the compound `Oc1cc2c(cc1O)CN(C(=S)NCCc1ccc(Cl)cc1)CCC2` [Capsazepine], the half-inhibitory concentration (IC50) in assay [1] (fluorescent label: DsRed) was 59.4 µM; in assay [1] (fluorescent label: GFP) it was 111 µM; in assay [2] (fluorescent label: DsRed), 34.5 µM; in assay [2] (fluorescent label: GFP), 36.1 µM.
In the case of `Cc1cc2nc3c(=O)[nH]c(=O)nc-3n(C[C@H](O)[C@H](O)[C@H](O)CO)c2cc1C` [FLAVAXIN], the IC50 in assay [1] (fluorescent label: DsRed), in assay [1] (fluorescent label: GFP), in assay [2] (fluorescent label: DsRed) and in assay [2] (fluorescent label: GFP) was greater than 150 µM throughout.
On to `CCOc1ccc2ccccc2c1C(=O)N[C@@H]1C(=O)N2[C@@H]1SC(C)(C)[C@@H]2C(=O)O` [NALLPEN], for which the half-inhibitory concentration (IC50) in assay [1] (fluorescent label: DsRed), in assay [1] (fluorescent label: GFP), in assay [2] (fluorescent label: DsRed) and in assay [2] (fluorescent label: GFP) was less than 9.85 µM in each case.
In the case of `O=c1oc2ccccc2c(O)c1Cc1c(O)c2ccccc2oc1=O` [DICUMOL], the half-maximal inhibitory concentration (IC50) in assay [1] (fluorescent label: DsRed) is 11.6 µM; in assay [1] (fluorescent label: GFP), 18.2 µM; in assay [2] (fluorescent label: DsRed), 14 µM; in assay [2] (fluorescent label: GFP) it was 27 µM.
Regarding `O=C(/C=C/c1ccc(O)cc1)c1ccc(O)cc1O` [Isoliquiritigenin], the 50% inhibitory concentration (IC50) was 130 µM in assay [1] (fluorescent label: DsRed), greater than 150 µM in assay [1] (fluorescent label: GFP), 27.5 µM in assay [2] (fluorescent label: DsRed) and 17 µM in assay [2] (fluorescent label: GFP).
In the same order, the values of `Oc1c(I)cc(I)c2cccnc12` [IOQUIN] are 20.7 µM, 17.8 µM, less than 9.85 µM and less than 9.85 µM.
For `COC1=CC(=O)C(O)=C/C1=C\C=C\c1ccccc1` [OBTUSAQUINONE], in that order: less than 9.85 µM, less than 9.85 µM, less than 9.85 µM and less than 9.85 µM.
In the same order, the values of `COC(=O)Nc1ccc(-c2nc(N3CCOCC3)c3cnn(C4CCN(Cc5cccnc5)CC4)c3n2)cc1` [WYE-687] are 49.6 µM, 74.8 µM, 15.1 µM and less than 9.85 µM.
As to `CO[C@@]1(NC(=O)C2SC(=C(C(N)=O)C(=O)O)S2)C(=O)N2C(C(=O)O)=C(CSc3nnnn3C)CS[C@@H]21` (stereo partly specified) [CEFOTAN], the 50% inhibitory concentration (IC50) is 14.9 µM in assay [1] (fluorescent label: DsRed), 14.9 µM in assay [1] (fluorescent label: GFP), less than 9.85 µM in assay [2] (fluorescent label: DsRed) and less than 9.85 µM in assay [2] (fluorescent label: GFP).
Turning to `OCCN1CCN(CC/C=C2/c3ccccc3Sc3ccc(C(F)(F)F)cc32)CC1` [cis-(Z)-Flupenthixol dihydrochloride], the 50% inhibitory concentration (IC50) in assay [1] (fluorescent label: DsRed) is 34.6 µM; in assay [1] (fluorescent label: GFP), 42.6 µM; in assay [2] (fluorescent label: DsRed), 12.9 µM; in assay [2] (fluorescent label: GFP) it was less than 9.85 µM.
For `OC(c1cc(C(F)(F)F)nc2c(C(F)(F)F)cccc12)C1CCCCN1` (stereo unspecified) [LARIAM], in that order: less than 9.85 µM, less than 9.85 µM, less than 9.85 µM and less than 9.85 µM.
In the same order, the values of `CN(C)C(=S)SSC(=S)N(C)C` [REZIFILM] are 33.4 µM, 63.6 µM, 18.2 µM and 23.6 µM.
